In brackets after ≈: the same amount, converted by molar mass. Several values for one entry are separate records, joined by “and”; a condition that tells them apart may be missing. Identical values can stand only once. Like-named read-outs stand apart in the source and are kept apart here.
Tests used:
[1] = tested on: Methicillin-resistant S. aureus ATCC 43300; test: microbe, parasite or virus in culture; settings: for MIC: Staphylococcus aureus
Procedure, shortened: (§1)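 Broth microdilution in Mueller Hinton broth with twofold serial dilutions of compound from 8 to 0.003 µg mL^−1.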

[2] = tested on: Vancomycin-resistant S. aureus NARSA VRS4; test: microbe, parasite or virus in culture; type: cell-based, Staphylococcus aureus; settings: for MIC VRSA: Vancomycin-resistant NARSA VRS4
[3] = tested on: Multi-drug-resistant S. pneumoniae ATCC 700677; test: microbe, parasite or virus in culture
Procedure, shortened: as §1

[4] = tested on: Vancomycin-intermediate S. aureus NRS1; test: microbe, parasite or virus in culture
Procedure, shortened: as §1

[5] = tested on: Vancomycin-resistant (VanA) Enterococcus faecium ATCC 51559; test: microbe, parasite or virus in culture
Procedure, shortened: as §1

[6] = tested on: Methicillin-sensitive S. aureus ATCC 29213; test: microbe, parasite or virus in culture; type: cell-based, Staphylococcus aureus; settings: for MIC: Staphylococcus aureus, ATCC 29213 / MSSA
Procedure: Antimicrobial activity of compounds was tested against a number of bacterial strains by broth microdilution (BMD) assay with MIC determination, including S. aureus (MSSA ATCC® 29213™, MRSA ATCC® 43300™, VISA NARSA NRS1, VISA NARSA NRS4), Streptococcus pneumoniae (MDR ATCC® 700677™) and Enterococcus faecium (MDR VanA ATCC® 51559™). ATCC strains were sourced from the American Type Culture Collection and NRS strains from NARSA (Network on Antimicrobial Resistance in S. aureus) via BEI Resources (www.beiresources.org). All compounds were prepared to 160 µg mL^−1 solution in water from a stock solution of 1 mM concentration.
[…] […] Standards ranged from 64 to 0.03 µg mL^−1 and compounds from 8 to 0.003 µg mL^−1 with final assay volumes of 100 µL per well. Gram-positive bacteria were cultured in Mueller Hinton broth (MHB) (Bactolaboratories, Cat. no. 211443) at 37 °C overnight. A sample of each culture was then diluted 40-fold in fresh MHB and incubated at 37 °C for 2–3 h. The resultant mid-log phase cultures were added to the compound-containing 96-well plates to give a final cell density of 5 × 10^5 colony forming unit (CFU) mL^−1. All the plates were covered and incubated at 37 °C for 24 h. MICs were the lowest concentration showing no visible growth.

Cytotoxicity MTT assay [7] = type: cell-based, human; settings: human
Cytotoxicity MTT assay [8] = type: cell-based, human; settings: human; remark: listed apart in the source
Procedure, shortened: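 Duplicate wells were used, with viability calculated against untreated and positive-control wells. Readout was MTT reduction: 2 h with 0.4 mg mL^−1 MTT, formazan dissolved in DMSO, absorbance at 570 nm. Before that, compound was applied 24 h at 37 °C over 100–0.046 µM (threefold dilutions) to HepG2 or HEK293 cells seeded 24 h earlier in DMEM/1% FBS.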

[9] = polystyrene plate, no polysorbate-80
[10] = polystyrene plate with 0.002% polysorbate-80
[11] = S. aureus ATCC 43300, NBS plates, MHB, 24 h, substance alone

SMILES	MIC S. aureus ATCC 43300 MRSA, NBS ([1]; ATCC 43300) [µg/mL]	MIC S. aureus ATCC 43300 MRSA, PP ([1]; ATCC 43300) [µg/mL]	MIC S. aureus ATCC 43300 MRSA, PS+P-80 ([1]; ATCC 43300) [µg/mL]	MIC MRSA ([1]; ATCC 43300, 24 h) [µg/mL]	MIC VRSA [2] [µg/mL]	MIC MDR S.P. ([3]; ATCC 700677) [µg/mL]	MIC VISA ([4]; Vancomycin-intermediate NRS1) [µg/mL]	MIC VRE ([5]; ATCC 51559) [µg/mL]	MIC S. aureus ATCC29213 MSSA, PP ([6]; ATCC 29213) [µg/mL]	MIC S. aureus ATCC29213 MSSA, PS ([6]; ATCC 29213) [µg/mL]	CC50 at 24 h (Cytotoxicity MTT assay [7]) [µM]	CC50 at 24 h (Cytotoxicity MTT assay [8]) [µM]	MIC S. aureus ATCC 43300 MRSA, PS [1, 9]	MIC S. aureus ATCC29213 MSSA, NBS ([6]; non-binding surface plate) [µg/mL]	MIC S. aureus ATCC29213 MSSA, PS+P-80 [6, 10] [µg/mL]	MIC MRSA [1, 11]	also measured
CCCCCCCCCCC(=O)N[C@@H](CCCCN)C(=O)N[C@@H](CCCCN)C(=O)N[C@@H](CCCCNC(=O)[C@H]1NC(=O)[C@H]2NC(=O)[C@H](NC(=O)[C@@H]3NC(=O)[C@H](CC(N)=O)NC(=O)[C@H](NC(=O)[C@@H](CC(C)C)NC)[C@H](O)c4ccc(c(Cl)c4)Oc4cc3cc(c4O[C@@H]3O[C@H](CO)[C@@H](O)[C@H](O)[C@H]3O[C@H]3C[C@](C)(N)[C@H](O)[C@H](C)O3)Oc3ccc(cc3Cl)[C@H]2O)c2ccc(O)c(c2)-c2c(O)cc(O)cc21)C(=O)O [Compound 19, nC10CO-KK-K(Vancomycin)-OH]	≤ 0.016	0.06 to 0.125	0.063 (≈ 0.0315 µM)	0.03 (≈ 0.015 µM)	1 (≈ 0.499 µM)	0.06 (≈ 0.03 µM)	0.5 (≈ 0.25 µM)	6 (≈ 3 µM)	0.125 to 0.25	0.03 to 0.06	290	355					MIC S. aureus ATCC 43300 MRSA, PS ([1]; ATCC 43300): 0.063 µg/mL (≈ 0.0315 µM); MIC S. aureus ATCC29213 MSSA, NBS ([6]; ATCC 29213): ≤ 0.016 µg/mL; MIC S. aureus ATCC29213 MSSA, PS+P-80 ([6]; ATCC 29213): 0.031 µg/mL (≈ 0.0155 µM)
CCCCCCCCCCCCCC(=O)N[C@@H](CCCCN)C(=O)N[C@@H](CCCCN)C(=O)N[C@@H](CCCCN)C(=O)N[C@@H](CCCCNC(=O)[C@H]1NC(=O)[C@H]2NC(=O)[C@H](NC(=O)[C@@H]3NC(=O)[C@H](CC(N)=O)NC(=O)[C@H](NC(=O)[C@@H](CC(C)C)NC)[C@H](O)c4ccc(c(Cl)c4)Oc4cc3cc(c4O[C@@H]3O[C@H](CO)[C@@H](O)[C@H](O)[C@H]3O[C@H]3C[C@](C)(N)[C@H](O)[C@H](C)O3)Oc3ccc(cc3Cl)[C@H]2O)c2ccc(O)c(c2)-c2c(O)cc(O)cc21)C(=O)O [Compound 17, nC13CO-KKK-K(Vancomycin)-OH]	≤ 0.016	1 (≈ 0.46 µM)	≤ 0.016	<0.003		<0.003	0.03 (≈ 0.0138 µM)	0.125 (≈ 0.0575 µM)	1 to 2	1 (≈ 0.46 µM)	15	19	1 µg/mL and 1 to 2 µg/mL	≤ 0.016	≤ 0.016		
CCCCCCCCCC(=O)N[C@@H](Cc1c[nH]c2ccccc12)C(=O)N[C@H](CC(N)=O)C(=O)N[C@@H](CC(=O)O)C(=O)N[C@@H]1C(=O)NCC(=O)N[C@@H](CCCN)C(=O)N[C@@H](CC(=O)O)C(=O)N[C@H](C)C(=O)N[C@@H](CC(=O)O)C(=O)NCC(=O)N[C@H](CO)C(=O)N[C@@H]([C@H](C)CC(=O)O)C(=O)N[C@@H](CC(=O)c2ccccc2N)C(=O)O[C@@H]1C [Compound 4, Daptomycin]											> 500	> 500					MIC ([1]; ATCC43300 / MRSA, 24 h, read-out: MIC MRSA): 2 µg/mL (≈ 1.23 µM); MIC ([1]; ATCC43300|MRSA, read-out: MIC S. aureus ATCC 43300 MRSA, NBS): 1 µg/mL (≈ 0.617 µM); MIC ([1]; ATCC43300|MRSA, read-out: MIC S. aureus ATCC 43300 MRSA, PP): 1 µg/mL (≈ 0.617 µM); MIC ([1]; ATCC43300|MRSA, read-out: MIC S. aureus ATCC 43300 MRSA, PS): 1 µg/mL (≈ 0.617 µM); MIC ([1]; ATCC43300|MRSA, read-out: MIC S. aureus ATCC 43300 MRSA, PS+P-80): 1 µg/mL (≈ 0.617 µM); MIC ([2]; Staphylococcus aureus, VRSA, S. aureus NARSA VRS4, read-out: MIC VRSA): 3 µg/mL (≈ 1.85 µM); MIC ([3]; Streptococcus pneumoniae, ATCC700677, read-out: MIC MDR S.P.): 2 µg/mL (≈ 1.23 µM); MIC ([4]; Staphylococcus aureus, NRS1 / VISA, read-out: MIC VISA): 12 µg/mL (≈ 7.4 µM); MIC ([5]; Enterococcus faecium, ATCC51559 / VRE, read-out: MIC VRE): 16 µg/mL (≈ 9.87 µM); MIC ([6]; S. aureus ATCC 29213, read-out: MIC MSSA): 1 µg/mL (≈ 0.617 µM); MIC ([6]; non-binding surface plate, read-out: MIC S. aureus ATCC29213 MSSA, NBS): 0.5 to 1 µg/mL (≈ 0.309 to 0.617 µM); MIC ([6]; polypropylene plate, read-out: MIC S. aureus ATCC29213 MSSA, PP): 1 µg/mL (≈ 0.617 µM); MIC ([6]; polystyrene plate with 0.002% polysorbate-80, read-out: MIC S. aureus ATCC29213 MSSA, PS+P-80): 1 µg/mL (≈ 0.617 µM); MIC ([6]; polystyrene plate, no polysorbate-80, read-out: MIC S. aureus ATCC29213 MSSA, PS): 1 µg/mL (≈ 0.617 µM)
CCCCCCCCCCC(=O)N[C@@H](CCCCN)C(=O)N[C@@H](CCCCN)C(=O)N[C@@H](CCCCN)C(=O)N[C@@H](CCCCNC(=O)[C@H]1NC(=O)[C@H]2NC(=O)[C@H](NC(=O)[C@@H]3NC(=O)[C@H](CC(N)=O)NC(=O)[C@H](NC(=O)[C@@H](CC(C)C)NC)[C@H](O)c4ccc(c(Cl)c4)Oc4cc3cc(c4O[C@@H]3O[C@H](CO)[C@@H](O)[C@H](O)[C@H]3O[C@H]3C[C@](C)(N)[C@H](O)[C@H](C)O3)Oc3ccc(cc3Cl)[C@H]2O)c2ccc(O)c(c2)-c2c(O)cc(O)cc21)C(=O)O [Compound 18, nC10CO-KKK-K(Vancomycin)-OH]				0.045 (≈ 0.0211 µM)	0.5 (≈ 0.235 µM)	0.06 (≈ 0.0282 µM)	0.5 (≈ 0.235 µM)				106	108					
CN[C@H]1C(=O)N[C@@H]2Cc3ccc(cc3)Oc3cc4cc(c3O[C@@H]3O[C@H](C(=O)O)[C@@H](O)[C@H](O)[C@H]3NC(=O)CCCCCCCCC(C)C)Oc3ccc(cc3Cl)[C@@H](O)[C@@H]3NC(=O)[C@H](NC(=O)[C@@H]4NC(=O)[C@@H](NC2=O)c2cc(cc(O)c2Cl)Oc2cc1ccc2O)c1ccc(O)c(c1)-c1c(O[C@H]2O[C@H](CO)[C@@H](O)[C@H](O)[C@@H]2O)cc(O)cc1[C@@H](C(=O)NCCCN(C)C)NC3=O [Compound 3, Dalbavancin]													0.25 µg/mL (≈ 0.138 µM)	≤ 0.016	≤ 0.016	0.06 µg/mL and 0.03 µg/mL	MIC S. aureus ATCC 43300 MRSA, NBS ([1]; non-binding surface plate): ≤ 0.016 µg/mL; MIC S. aureus ATCC 43300 MRSA, PP ([1]; polypropylene plate): 0.063 µg/mL (≈ 0.0347 µM); MIC S. aureus ATCC 43300 MRSA, PS+P-80 [1, 10]: ≤ 0.016 µg/mL; MIC MDR S.P. ([3]; S. pneumoniae ATCC 700677): 0.09 µg/mL (≈ 0.0495 µM); MIC VISA ([4]; S. aureus NRS1): 1 µg/mL (≈ 0.55 µM); MIC VRE ([5]; E. faecium MDR VanA ATCC 51559, substance alone): >8 µg/mL; MIC MSSA ([6]; S. aureus ATCC 29213): ≤0.016 µg/mL; MIC S. aureus ATCC29213 MSSA, PP ([6]; polypropylene plate): 0.125 µg/mL (≈ 0.0688 µM); MIC S. aureus ATCC29213 MSSA, PS [6, 9]: 0.25 µg/mL (≈ 0.138 µM)
CCCCCCCCCCC(=O)N[C@@H](CCCCN)C(=O)N[C@@H](CCCCN)C(=O)N[C@@H](CCCCNC(=O)[C@H]1NC(=O)[C@H]2NC(=O)[C@H](NC(=O)[C@@H]3NC(=O)[C@H](CC(N)=O)NC(=O)[C@H](NC(=O)[C@@H](CC(C)C)NC)[C@H](O)c4ccc(c(Cl)c4)Oc4cc3cc(c4O[C@@H]3O[C@H](CO)[C@@H](O)[C@H](O)[C@H]3O[C@H]3C[C@](C)(N)[C@H](O)[C@H](C)O3)Oc3ccc(cc3Cl)[C@H]2O)c2ccc(O)c(c2)-c2c(O)cc(O)cc21)C(N)=O [Compound 21, nC10CO-KK-K(Vancomycin)-NH2]						0.015 (≈ 0.0075 µM)	0.06 (≈ 0.03 µM)	2 (≈ 0.999 µM)			131	113				0.007 µg/mL (≈ 0.0035 µM)	
